Measurements taken from article PMC6278664, “Highly Cancer Selective Antiproliferative Activity of Natural Prenylated Flavonoids” (Molecules, 2018).
Read-outs that look alike come from different tables or passages of the source.

Tests used:
[1] = test system: PC-3 cell line; design: method as in PMID 23434138; details: earlier study; cited from earlier work
[2] = test system: A2780 human ovarian cancer cell line; experiment: SRB antiproliferative assay, A2780; assay type: cell-based; details: for IC50: SRB, 72 h, mean ± SD, read-out: Cancer cell line, IC50, A-2780; for Selectivity index SIA, A-2780: IC50 HLMEC / IC50 A-2780; for Selectivity index SIB, A-2780: IC50 MCF-10A / IC50 A-2780
Procedure: (§1) We determined the effect of various structural factors in the substrates on the antiproliferative activity against those selected to the study cell lines: the location and/or the presence of the prenyl group, the chalcone/flavanone skeleton and the presence of an O-methyl group at C-5 in flavanones. Flavonoids presented in Figure 1 were tested for the antiproliferative activity towards eight cancer cell lines including estrogen-dependent (MCF7 and T-47D) and two normal ones (HLMEC and MCF 10A). The in vitro antiproliferative activity was measured using SRB assay. The results are presented in Figure 2 (and in the supplement in Table S1). The antiproliferative activity was measured separately for each of the experiments and given as the average IC50 (the concentration of tested compound which inhibits 50% of the cells population). Cisplatin (CP), a common anticancer drug, was used as a positive control.
(§2) The following established in vitro cell lines were applied: MCF7, T-47D, MDA-MB-231 (human breast cancer cell line), A2780 (human ovarian cancer cell line), A2780cis (human cisplatin-resistant ovarian cancer cell line), PC-3 and DU 145 (human prostate cancer cell lines), HT-29 (human colon cancer cell line), HLMEC (human lung microvascular endothelial cell line), and MCF 10A (human mammary epithelial cells line).
(§3) The cell lines: MDA-MB-231, HT-29, PC-3, DU 145, and MCF 10A were obtained from the American Type Culture Collection (Rockville, MD, USA), MCF7, T-47D, A2780, A2780cis from the European Collection Cell Cultures (Sigma-Aldrich, Chemie GmbH, Steinheim, Germany), while the HLMEC cell line was obtained by M. Paprocka from the institute. All cell lines are being maintained in the Institute of Immunology and Experimental Therapy (Wrocław, Poland). DU 145 and MCF7 cells were cultured in Eagle medium (supplemented with 4mM L-glutamine, 10% fetal bovine serum, 1 mM sodium pyruvate for DU 145 cells or 2 mM L-glutamine, 1% mem non-essential amino acid solution and 8 µg/mL insulin and 10% fetal bovine serum for MCF7). […] HT-29 and T-47D cell lines were cultured in RPMI 1640 + OPTI-MEM medium supplemented with 2 mM L-glutamine, 5% fetal bovine serum and 8 µg/mL of insulin (T-47D) or 1 mM sodium pyruvate (HT-29). MDA-MB-231, PC-3 and HLMEC cell lines were cultured in RPMI 1640 medium supplemented with 2 mM L-glutamine and 10% fetal bovine serum. Medium for MCF 10A cell line consisted of F-12 nutrient mixture supplemented with cholera toxin (0.05 µg/mL), insulin (10 µg/mL), hydrocortisone (0.5 µg/mL), 5% horse serum, and EGFH (20 ng/mL). All the culture media contained antibiotics: 100 units/mL penicillin (Polfa Tarchomin SA, Warsaw, Poland), and 100 µg/mL streptomycin (Sigma-Aldrich, Chemie GmbH, Steinheim, Germany). All cell lines were grown at 37 °C with 5% CO2 humidified atmosphere.
(§4) Twenty-four hours before the incubation with the tested compounds, the cells were seeded in 96-plates (Sarstedt, Germany) at a density of 1 × 10^4 cells per well (0.75 × 10^4 per well for MCF7 and 1 × 10^3 per well for HLMEC) in 100 µL of a culture medium.
(§5) Each agent at each concentration (from 0.1 to 100 µg/mL) was tested in a single experiment, which was repeated four to five times. […] Cisplatin was used as a reference drug.
(§6) The results were calculated as the IC50 (inhibitory concentration 50%)—the concentration of the tested compound which inhibits 50% of the cells population. IC50 values were calculated for each experiment separately and mean values ± SD are presented in the Table S1 in the Supplementary Materials. Each compound at each concentration was tested in triplicate in a single experiment, which was repeated four to five times.
(§7) The cells were fixed in situ by gently adding cold 50% trichloroacetic acid (50 µL per well). The plates were incubated at 4 °C for 1h and then washed five times with tap water. […]

[3] = test system: HLMEC human lung microvascular endothelial cell line; experiment: SRB antiproliferative assay, HLMEC (normal); assay type: cell-based; details: 72 h, mean ± SD
[4] = test system: MDA-MB-231 human breast cancer cell line; experiment: SRB antiproliferative assay, MDA-MB-231; assay type: cell-based; details: for IC50: SRB, 72 h, mean ± SD; for Selectivity index SIA, MDA-MB-231: IC50 HLMEC / IC50 MDA-MB-231; for Selectivity index SIB, MDA-MB-231: IC50 MCF-10A / IC50 MDA-MB-231
Procedure: as §1, §2, §3, §4, §5, §6, §7

[5] = test system: MCF 10A human mammary epithelial cells line; experiment: SRB antiproliferative assay, MCF 10A (normal); assay type: cell-based; details: 72 h, mean ± SD, read-out: Normal cell line, IC50, MCF-10A
Procedure: as §1, §2, §3, §4, §5, §6, §7

[6] = test system: PC-3 human prostate cancer cell line; experiment: SRB antiproliferative assay, PC-3; assay type: cell-based; details: for IC50: SRB, 72 h, mean ± SD; for Selectivity index SIA, PC-3: IC50 HLMEC / IC50 PC-3; for Selectivity index SIB, PC-3: IC50 MCF-10A / IC50 PC-3
Procedure: as §1, §2, §3, §4, §5, §6, §7

[7] = test system: A2780cis human cisplatin-resistant ovarian cancer cell line; experiment: SRB antiproliferative assay, A2780cis; assay type: cell-based; details: for IC50: SRB, 72 h, mean ± SD, read-out: Cancer cell line, IC50, A-2780cis; for Selectivity index SIA, A-2780cis: IC50 HLMEC / IC50 A-2780cis; for Selectivity index SIB, A-2780cis: IC50 MCF-10A / IC50 A-2780cis
Procedure: as §1, §2, §3, §4, §5, §6, §7

[8] = test system: HT-29 human colon cancer cell line; experiment: SRB antiproliferative assay, HT-29; assay type: cell-based; details: for IC50: SRB, 72 h, mean ± SD; for Selectivity index SIA, HT-29: IC50 HLMEC / IC50 HT-29; for Selectivity index SIB, HT-29: IC50 MCF-10A / IC50 HT-29
[9] = test system: T-47D human breast cancer cell line; experiment: SRB antiproliferative assay, T-47D; assay type: cell-based; details: for IC50: SRB, 72 h, mean ± SD; for Selectivity index SIA, T-47D: IC50 HLMEC / IC50 T-47D; for Selectivity index SIB, T-47D: IC50 MCF-10A / IC50 T-47D
Procedure: as §1, §2, §3, §4, §5, §6, §7

[10] = cited from earlier work
[11] = test system: MCF7 human breast cancer cell line; experiment: SRB antiproliferative assay, MCF7; assay type: cell-based; details: for IC50: SRB, 72 h, mean ± SD; for Selectivity index SIA, MCF-7: IC50 HLMEC / IC50 MCF-7; for Selectivity index SIB, MCF-7: IC50 MCF-10A / IC50 MCF-7
Procedure: as §1, §2, §3, §4, §5, §6, §7

[12] = test system: DU 145 human prostate cancer cell line; experiment: SRB antiproliferative assay, DU 145; assay type: cell-based; details: for IC50: SRB, 72 h, mean ± SD; for Selectivity index SIA, Du-145: IC50 HLMEC / IC50 Du-145; for Selectivity index SIB, Du-145: IC50 MCF-10A / IC50 Du-145
Procedure: as §1, §2, §3, §4, §5, §6, §7

[13] = test system: human CYP1B1; design: method as in PMID 10752639; details: cited from earlier work
[14] = test system: human CYP1A1; design: method as in PMID 10752639; details: cited from earlier work
[15] = breast tissue study of Bolca and co-workers

Row | Compound | IC50 ([2]; Homo sapiens, A2780) | Selectivity index SIA, A-2780 [2] | Selectivity index SIB, A-2780 [2] | IC50 ([3]; Homo sapiens, Endothelial cell) | IC50 ([4]; Homo sapiens, MDA-MB-231) | Selectivity index SIA, MDA-MB-231 [4] | Selectivity index SIB, MDA-MB-231 [4] | IC50 ([5]; Homo sapiens, MCF-10A) | Selectivity index SIA, PC-3 [6] | Selectivity index SIB, PC-3 [6] | Selectivity index SIA, A-2780cis [7] | Selectivity index SIB, A-2780cis [7] | Selectivity index SIA, HT-29 [8] | Selectivity index SIB, HT-29 [8] | Selectivity index SIA, T-47D [9] | Selectivity index SIB, T-47D [9] | Selectivity index SIA, MCF-7 [11] | Selectivity index SIB, MCF-7 [11] | Selectivity index SIA, Du-145 [12] | Selectivity index SIB, Du-145 [12] | further results
1 | COc1cc(O)c(CCC(C)(C)O)c(O)c1C(=O)/C=C/c1ccc(O)cc1 [xanthohumol H, 3′-[3′-hydroxy-3”methylbutyl]-4,2′,4′-trihydroxy-6′-methoxychalcone] |  |  |  |  |  |  |  |  |  |  |  |  |  |  |  |  |  |  |  |  | Antiproliferative activity towards PC-3 cell line [1]: inactive
2 | CC(C)=CCc1c(O)cc(O)c2c1OC(c1ccc(O)cc1)CC2=O (stereo not shown) [8PN, 8-(3,3-dimethylallyl)-5,7,4′-trihydroxyflavanone] | 25.9 ± 8.32 µM | 0.92 | 3.50 | 23.9 ± 10.9 µM | 63.8 ± 7.27 µM | 0.37 | 1.42 | 90.7 ± 19.8 µM | 0.47 | 1.77 | 0.36 | 1.37 | 0.27 | 1.00 | 0.90 | 3.40 | 0.48 | 1.83 | 0.39 | 1.50 | IC50 ([6]; Homo sapiens): 51.4 ± 11.3 µM; IC50 ([7]; Homo sapiens, A2780cis): 66.4 ± 10.1 µM; IC50 ([8]; Homo sapiens, HT-29): 89.8 ± 3.42 µM; IC50 ([9]; Homo sapiens, T47D): 26.7 ± 9.7 µM; Glucuronidation [10, 15]: > 90%; IC50 ([11]; Homo sapiens, MCF7, 72 h): 49.5 ± 7.36 µM; IC50 ([12]; Homo sapiens, DU-145): 60.6 ± 6.66 µM
3 | COc1cc(O)c(CC=C(C)C)c(O)c1C(=O)/C=C/c1ccc(O)cc1 [XN, 3′-(3,3-dimethylallyl)-4,2′,4′-trihydroxy-6′-methoxychalcone] | 2.06 ± 1.03 µM | 4.65 | 27.16 | 9.57 ± 4.23 µM | 8.46 ± 3.19 µM | 1.13 | 6.61 | 56 ± 27.3 µM | 1.11 | 6.50 | 1.17 | 6.81 | 1.02 | 5.94 | 1.20 | 7.00 | 0.88 | 5.16 | 1.47 | 8.62 | SIA against A2780, times higher than the reference ([2]; ratio of SIA to SIA of cisplatin): 5-8 times; Inhibition of EROD activity of CYP1B1 [13]: almost completely inhibited; IC50 ([6]; Homo sapiens): 8.61 ± 1.11 µM; IC50 ([7]; Homo sapiens, A2780cis): 8.21 ± 0.83 µM; IC50 ([8]; Homo sapiens, HT-29): 9.42 ± 0.25 µM; IC50 ([9]; Homo sapiens, T47D): 7.99 ± 2.77 µM; Glucuronidation [10, 15]: > 90%; IC50 ([11]; Homo sapiens, MCF7, 72 h): 10.8 ± 0.32 µM; IC50 ([12]; Homo sapiens, DU-145): 6.49 ± 2.14 µM; Inhibition of EROD activity of CYP1A1 [14]: almost completely inhibited
4 | 8-(3,3-dimethylallyl)-4,7-dihydroxy-5-methoxyflavanone [IXN] |  | 1.58 | 9.09 |  |  | 0.29 | 1.66 |  | 0.23 | 1.35 | 1.07 | 6.19 | 0.41 | 2.36 | 0.47 | 2.70 | 0.75 | 4.31 | 0.21 | 1.22 | IC50 [2]: 7.93 ± 1.65 µM; IC50 [3]: 12.5 ± 5.65 µM; IC50 [4]: 43.3 ± 10.3 µM; IC50 [5]: 72.1 ± 21.7 µM; IC50 [6]: 53.2 ± 10.6 µM; IC50 [7]: 11.7 ± 1.44 µM; IC50 [8]: 30.6 ± 1 µM; IC50 [9]: 26.8 ± 6.44 µM; Glucuronidation ([10]; in vivo): > 90%; IC50 [11]: 16.7 ± 0.88 µM; IC50 [12]: 59.2 ± 5.73 µM
